Entries after “also recorded” stand apart in the source; their conditions may differ.
Columns and labels:
[1] = system: freshly isolated murine splenocytes; test: CellTiter-Glo cell viability, primary splenocytes; assay type: cell-based
Procedure: BzFβ was then examined for its effect on the viability of several murine and human cell lines and primary murine splenocytes. The cytotoxicity of BzFβ was assessed using the CellTiter-Glo […] assay system according to manufacturer's instructions to determine BzFβ's effect on the viability of several murine and human cell lines and primary murine splenocytes.
Six- to ten-week-old female C57BL/6NCrl mice (Charles River Laboratories, Wilmington, MA; cat. no. 027) were maintained in accord with the NIH Guide for the Care and Use of Laboratory Animals. Mice were maintained in an INOVIVE individually ventilated cage system with 3 mice per cage containing 100% virgin wood pulp bedding (Harlan Teklad™, Inotiv Inc., West Lafayette, IN; cat. no. 7099). Water and food (Harlan Teklad™, Inotiv Inc., West Lafayette, IN; cat. no. 8640) were available ad libitum. […] The cell count was determined using the MUSE cell viability kit (MCH600103) and MUSE Cell Analyzer (Luminex Corp, Austin TX). […]
The cytotoxicity of BzFβ was assessed using the CellTiter-Glo cell […] viability assay system […] cat. no. […] CellTiter-Glo was added 1:1 in the media and the level of chemiluminescence was measured using luminescence at wavelengths of 200 nm to 700 nm through a photomultiplier on BioTek's Synergy HTX multimode microplate reader. […]

[2] = system: MHC class I H-2Kb on DC2.4; test: MHC class I recovery after acid stripping of DC2.4; assay type: cell-based, murine
Procedure: To determine if BzFβ affects synthesis or cycling of the MHC class I molecules, the class I molecule/peptide complexes were stripped from the surface of DC2.4 cells using a citric acid buffer, then treated with 25 μg/mL BzFβ, 5 mM of the dipeptide GL, or 3 μg/mL BFA (see Example 4) as a negative control.
An acid wash to strip the cell surface of MHC class I was performed as described with modifications. (Montealegre, et al., Dissociation of β2-microglobulin determines the surface quality control of major histocompatibility complex class I molecules. FASEB. 2015 July; 29(7):2780-8). DC2.4 were incubated overnight at 37° C. at 1×10^5. Cells were washed for 2 min in acidic buffer [(pH 2.5) 465 mM Citric acid, 35 mM sodium citrate, in PBS with 1% v/v FBS] or neutral buffer [(pH 7.4) PBS with 1% v/v FBS]. Afterwards the pH was neutralized by the addition of cDMEM. The cells were washed with PBS and treated with BzFβ or GL in cDMEM for various times to allow for MHC class I recovery at 37° C. Cells were washed and stained with an H-2Kb-specific antibody (Invitrogen, cat. no. 12-5958-82) and analyzed by flow cytometry as described previously
MHC I recovery on the cell surface at various time points was detected by flow cytometry using the PE-labeled MHC class I H-2Kb specific antibody (AF6-88.5.5.3). […] At 6 hours >60% of the MHC class I molecules recovered, seen in FIG. 14.

H-2Db on DC2.4 = target: T1, H-2Db on DC2.4 (Mus musculus, UniProt P01899); test: FITC-labeled HPV peptide RAHYNIVTF binding to DC2.4; assay type: cell-based, murine; settings: 25 µg/mL BzFβ 4 or 24 h, 1 h pulse
T1 construct: DC2.4 are a C57Bl/6 lineage murine cell line and as such they express MHC class I H-2Kb and H-2Db; endogenous in cells; host or cells: DC2.4
Procedure: For peptide loading studies, cultured cells were treated for various times as indicated in results and figure legends. Cells were centrifuged and washed using cold FACS buffer (DPBS with 5% FBS, 2 mM EDTA, 0.1% sodium azide). Cells were blocked using Fc block (bioLegend™; cat. no. 101320) for 10 min to 15 min to inhibit non-specific binding, followed by staining with fluorophore-conjugated antibody PE-labeled anti-MHC I/SIINFEKL (clone 25-D1.16, Invitrogen 12-5743-82), for 30 min at 4° C. For N-terminal FITC labeled H-2Db peptide RAHYNIVTF (AnaSpec Inc., Fremont, CA; cat. no.) cells were incubated with peptide for 1-4 h before washing and analysis. After washing, the cells were subjected to flow cytometric analysis with the Attune NxT Flow Cytometer (Invitrogen™). Cells were gated based on live single-cell populations and positives were assessed using isotype controls and fluor-minus-one analysis when needed. Data were analyzed using the Attune NxT software or FlowJo versions 10.7 and 10.8.
Cells were cultured as previously described and treated for various times as indicated in results and figure legends. […] Cells were gated based on live single-cell populations and positives were assessed using isotype controls and fluor-minus-one analysis when needed. Data were analyzed using the Attune NxT software or FlowJo versions 10.7 and 10.8. […]

T1 sequence (P01899 25-362): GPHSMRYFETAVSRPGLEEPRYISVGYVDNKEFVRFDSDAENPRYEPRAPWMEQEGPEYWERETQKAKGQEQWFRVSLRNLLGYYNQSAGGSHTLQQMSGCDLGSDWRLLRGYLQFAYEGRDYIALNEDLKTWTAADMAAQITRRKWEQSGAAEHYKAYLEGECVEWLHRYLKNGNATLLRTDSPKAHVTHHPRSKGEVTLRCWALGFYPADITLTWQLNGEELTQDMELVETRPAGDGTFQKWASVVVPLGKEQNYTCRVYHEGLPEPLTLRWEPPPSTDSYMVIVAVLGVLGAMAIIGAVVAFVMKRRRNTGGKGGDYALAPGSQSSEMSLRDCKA
T1 sequence (P01887 21-119 partner): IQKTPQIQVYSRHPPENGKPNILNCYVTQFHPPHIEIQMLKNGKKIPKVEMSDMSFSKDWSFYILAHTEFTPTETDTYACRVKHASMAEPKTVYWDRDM

O=C(O)/C=C/c1ccc2occc2c1 [BzFβ, (2E)-3-(1-benzofuran-5-yl)prop-2-enoic acid]
IC50 ([1]; Mus musculus, Splenocyte, freshly isolated murine splenocytes, CellTiter-Glo): 402 µM
viability of primary murine splenocytes ([1]; concentrations below 50 µg/mL): minimally affected
MHC class I recovery after acid stripping ([2]; 25 μg/mL BzFβ or 5 mM GL during recovery, 4-24 h): did not show an increase in MHC class I recovery
B3Z response post acid-stripping ([2]; treated during recovery, data not shown): still able to increase the B3Z response
binding of FITC labeled HPV peptide to H-2Db (H-2Db on DC2.4): enhance peptide binding on both haplotypes; also recorded: significant increase in peptide binding

Reference: patent US20250381165A1, “Method of Use for Benzofuran Compounds” (Tampa Bay Research Institute, Inc., priority 2024, published 2025)
